Assays:
Assay type in all cases: biochemical
Conditions in all cases: ratio of IC50 values, SPA, purified human PI3K isoforms
[1] = molecular target: human PI3K isoform beta (p110 beta) (Homo sapiens, UniProt P42338); test: p110 isoform selectivity scintillation proximity assay (beta)
Experimental: (§1) Binding of compounds of the invention from above Tables 1a and 1b to purified preparations of p110 isoforms alpha, beta, delta, and gamma was measured by a Scintillation Proximity Assay (SPA) to determine binding activity (IC50 μMol) and selectivity of binding of beta, delta, and gamma isoforms relative to alpha (Example 8). These values are expressed in Table 2.
(§2) The ability of representative compounds from Tables 1a and 1b to inhibit the lipid kinase activity of purified preparations of human PI3K isoforms alpha, beta, delta, and gamma was determined by a radiometric scintillation proximity assay (SPA, GE Healthcare, Amersham Biosciences). Concentration dependent inhibition at 50% (IC50 μMol) was determined for all four isoforms […] and fold potency over beta, delta, and gamma relative to alpha was calculated for a selection of compounds in Table 2. Each compound has a p110 alpha IC50<1 μMol.

[2] = molecular target: human PI3K isoform delta (p110 delta) (Homo sapiens, UniProt O00329); test: p110 isoform selectivity scintillation proximity assay (delta)
Experimental: as §1, §2

[3] = molecular target: human PI3K isoform gamma (p110 gamma) (Homo sapiens, UniProt P48736); test: p110 isoform selectivity scintillation proximity assay (gamma)
Experimental: as §1, §2

Sequence of human PI3K isoform beta (p110 beta) (P42338 whole entry, canonical isoform): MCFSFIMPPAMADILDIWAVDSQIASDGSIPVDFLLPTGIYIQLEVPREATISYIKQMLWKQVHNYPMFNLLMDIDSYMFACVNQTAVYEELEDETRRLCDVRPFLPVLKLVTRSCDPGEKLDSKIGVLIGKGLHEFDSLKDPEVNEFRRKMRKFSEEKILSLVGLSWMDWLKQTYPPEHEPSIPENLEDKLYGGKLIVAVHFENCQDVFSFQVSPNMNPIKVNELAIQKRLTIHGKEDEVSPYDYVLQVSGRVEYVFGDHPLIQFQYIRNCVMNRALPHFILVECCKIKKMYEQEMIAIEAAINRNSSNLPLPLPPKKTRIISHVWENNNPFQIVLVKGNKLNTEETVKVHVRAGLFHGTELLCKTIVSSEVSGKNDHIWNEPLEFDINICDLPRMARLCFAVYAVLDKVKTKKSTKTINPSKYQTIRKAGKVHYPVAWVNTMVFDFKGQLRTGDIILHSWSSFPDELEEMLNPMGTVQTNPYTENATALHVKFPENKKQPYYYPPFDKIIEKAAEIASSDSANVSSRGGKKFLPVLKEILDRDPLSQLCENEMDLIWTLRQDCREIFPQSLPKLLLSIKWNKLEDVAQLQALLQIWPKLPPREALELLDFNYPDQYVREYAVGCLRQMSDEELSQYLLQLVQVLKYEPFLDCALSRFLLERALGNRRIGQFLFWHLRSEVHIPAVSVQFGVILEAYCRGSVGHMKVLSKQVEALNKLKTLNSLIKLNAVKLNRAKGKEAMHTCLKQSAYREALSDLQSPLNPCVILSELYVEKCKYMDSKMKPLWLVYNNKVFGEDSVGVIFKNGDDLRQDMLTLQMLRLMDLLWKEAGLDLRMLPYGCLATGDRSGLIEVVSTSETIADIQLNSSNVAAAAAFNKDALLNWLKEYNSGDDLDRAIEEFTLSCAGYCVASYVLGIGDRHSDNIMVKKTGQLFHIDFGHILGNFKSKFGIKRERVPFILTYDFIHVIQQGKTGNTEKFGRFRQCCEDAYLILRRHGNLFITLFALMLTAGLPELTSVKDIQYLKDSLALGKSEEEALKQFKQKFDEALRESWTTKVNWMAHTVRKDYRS
Sequence of human PI3K isoform beta (p110 beta) (P27986 whole entry partner, canonical isoform): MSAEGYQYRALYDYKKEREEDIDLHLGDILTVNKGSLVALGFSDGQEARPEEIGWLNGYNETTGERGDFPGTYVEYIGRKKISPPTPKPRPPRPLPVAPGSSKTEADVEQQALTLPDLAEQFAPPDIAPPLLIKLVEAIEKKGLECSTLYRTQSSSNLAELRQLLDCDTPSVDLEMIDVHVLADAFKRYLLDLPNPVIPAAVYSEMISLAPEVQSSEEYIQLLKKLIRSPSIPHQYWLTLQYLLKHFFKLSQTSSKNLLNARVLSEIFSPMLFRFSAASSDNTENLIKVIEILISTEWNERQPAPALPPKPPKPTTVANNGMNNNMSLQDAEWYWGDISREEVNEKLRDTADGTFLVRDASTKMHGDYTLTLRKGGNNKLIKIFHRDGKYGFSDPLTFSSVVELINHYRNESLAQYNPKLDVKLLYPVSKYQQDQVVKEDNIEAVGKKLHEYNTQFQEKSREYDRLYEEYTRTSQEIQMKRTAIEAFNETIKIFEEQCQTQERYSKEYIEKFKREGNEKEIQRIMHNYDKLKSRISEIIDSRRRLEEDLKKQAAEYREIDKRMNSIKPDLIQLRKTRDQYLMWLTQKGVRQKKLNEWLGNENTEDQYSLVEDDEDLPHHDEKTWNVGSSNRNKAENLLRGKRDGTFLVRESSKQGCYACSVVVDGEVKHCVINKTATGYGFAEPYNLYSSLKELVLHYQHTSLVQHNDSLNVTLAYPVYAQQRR
Sequence of human PI3K isoform gamma (p110 gamma) (P48736 whole entry, canonical isoform): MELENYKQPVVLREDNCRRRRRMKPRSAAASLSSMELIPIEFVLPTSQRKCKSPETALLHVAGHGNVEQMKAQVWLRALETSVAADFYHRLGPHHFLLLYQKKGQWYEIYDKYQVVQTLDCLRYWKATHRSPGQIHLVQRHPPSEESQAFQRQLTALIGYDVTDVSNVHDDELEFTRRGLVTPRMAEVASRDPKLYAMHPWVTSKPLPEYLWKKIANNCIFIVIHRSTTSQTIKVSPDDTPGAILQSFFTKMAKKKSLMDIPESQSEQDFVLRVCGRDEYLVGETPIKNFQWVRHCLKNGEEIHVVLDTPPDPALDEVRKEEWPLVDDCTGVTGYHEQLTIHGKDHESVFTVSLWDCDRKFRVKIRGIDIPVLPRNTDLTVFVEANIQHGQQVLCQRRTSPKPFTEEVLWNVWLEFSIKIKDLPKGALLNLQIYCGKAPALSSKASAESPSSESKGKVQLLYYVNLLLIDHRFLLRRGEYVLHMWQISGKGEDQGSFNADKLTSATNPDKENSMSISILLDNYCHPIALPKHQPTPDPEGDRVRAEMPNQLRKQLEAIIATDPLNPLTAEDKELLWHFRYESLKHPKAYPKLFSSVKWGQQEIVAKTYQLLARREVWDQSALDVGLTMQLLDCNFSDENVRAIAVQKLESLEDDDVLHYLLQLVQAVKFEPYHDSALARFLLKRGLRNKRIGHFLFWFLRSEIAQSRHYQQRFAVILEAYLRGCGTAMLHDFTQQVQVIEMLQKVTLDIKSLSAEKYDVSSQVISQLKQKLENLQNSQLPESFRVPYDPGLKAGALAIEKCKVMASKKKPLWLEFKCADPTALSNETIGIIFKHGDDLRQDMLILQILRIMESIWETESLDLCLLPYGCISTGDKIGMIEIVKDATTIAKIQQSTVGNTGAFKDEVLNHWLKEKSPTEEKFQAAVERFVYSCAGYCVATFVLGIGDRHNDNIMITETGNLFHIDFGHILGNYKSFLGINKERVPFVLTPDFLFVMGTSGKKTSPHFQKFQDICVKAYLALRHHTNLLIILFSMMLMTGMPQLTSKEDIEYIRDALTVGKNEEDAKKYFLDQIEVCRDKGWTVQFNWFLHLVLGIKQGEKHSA
Sequence of human PI3K isoform delta (p110 delta) (O00329 whole entry, canonical isoform): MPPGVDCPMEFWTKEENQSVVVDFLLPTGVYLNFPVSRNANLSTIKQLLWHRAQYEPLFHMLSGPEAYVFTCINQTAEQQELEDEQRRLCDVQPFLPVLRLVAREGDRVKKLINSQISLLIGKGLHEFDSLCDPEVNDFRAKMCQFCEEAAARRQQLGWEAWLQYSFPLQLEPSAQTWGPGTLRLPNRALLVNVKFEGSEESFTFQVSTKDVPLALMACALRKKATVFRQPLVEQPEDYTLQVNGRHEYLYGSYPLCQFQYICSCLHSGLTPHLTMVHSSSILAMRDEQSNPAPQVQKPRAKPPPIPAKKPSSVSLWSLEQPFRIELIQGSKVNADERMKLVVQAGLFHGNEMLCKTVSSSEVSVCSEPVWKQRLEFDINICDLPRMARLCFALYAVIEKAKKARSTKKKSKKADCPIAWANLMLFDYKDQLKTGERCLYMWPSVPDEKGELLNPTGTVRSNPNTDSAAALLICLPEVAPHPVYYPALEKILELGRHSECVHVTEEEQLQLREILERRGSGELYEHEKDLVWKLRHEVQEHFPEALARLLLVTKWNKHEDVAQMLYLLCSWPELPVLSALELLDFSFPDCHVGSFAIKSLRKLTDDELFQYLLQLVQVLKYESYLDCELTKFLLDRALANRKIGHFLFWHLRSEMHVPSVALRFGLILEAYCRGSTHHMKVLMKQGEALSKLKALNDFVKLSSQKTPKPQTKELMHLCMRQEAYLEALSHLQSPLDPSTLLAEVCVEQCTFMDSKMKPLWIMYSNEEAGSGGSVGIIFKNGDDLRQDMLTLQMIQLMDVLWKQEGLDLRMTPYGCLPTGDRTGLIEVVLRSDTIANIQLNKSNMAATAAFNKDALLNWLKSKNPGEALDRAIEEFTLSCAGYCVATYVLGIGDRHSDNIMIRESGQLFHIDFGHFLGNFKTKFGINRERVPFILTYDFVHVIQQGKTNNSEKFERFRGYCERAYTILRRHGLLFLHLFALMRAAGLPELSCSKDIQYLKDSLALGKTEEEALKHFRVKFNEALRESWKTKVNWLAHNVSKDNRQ
Sequence of human PI3K isoform delta (p110 delta) (P27986 whole entry partner, canonical isoform): as the sequence (P27986 whole entry partner, canonical isoform) above

With `CS(=O)(=O)N1CCN(Cc2cc3nc(-c4cccc5[nH]ncc45)nc(N4CCOCC4)c3o2)CC1` [Compound 2, 2-(1H-indazol-4-yl)-6-((4-methylsulfonylpiperazin-1-yl)methyl)-4-morpholinofuro[3,2-d]pyrimidine] the “alpha/beta (fold potency over beta relative to alpha)” value [1] was greater than 10 fold, the “alpha/delta (fold potency over delta relative to alpha)” value [2] was less than 10 fold and the “alpha/gamma (fold potency over gamma relative to alpha)” value [3] was greater than 10 fold.
For `C[C@H]1CN(Cc2cc3nc(-c4cccc5[nH]ncc45)nc(N4CCOCC4)c3s2)CCN1S(C)(=O)=O` [Compound 4, 2-(1H-indazol-4-yl)-6-(((3S,5R)-3-methyl-4-methylsulfonylpiperazin-1-yl)methyl)-4-morpholinothieno[3,2-d]pyrimidine], the “alpha/beta (fold potency over beta relative to alpha)” value [1] was greater than 10 fold, the “alpha/delta (fold potency over delta relative to alpha)” value [2] was less than 10 fold and the “alpha/gamma (fold potency over gamma relative to alpha)” value [3] was greater than 10 fold.
For `C[C@@H]1CN(S(C)(=O)=O)C[C@H](C)N1Cc1cc2nc(-c3cccc4[nH]ncc34)nc(N3CCOCC3)c2s1` [Compound 7, 6-(((2R,6S)-4-methylsulfonyl-2,6-dimethylpiperazin-1-yl)methyl)-2-(1H-indazol-4-yl)-4-morpholinothieno[3,2-d]pyrimidine], the “alpha/beta (fold potency over beta relative to alpha)” value [1] was greater than 10 fold, the “alpha/delta (fold potency over delta relative to alpha)” value [2] was less than 10 fold and the “alpha/gamma (fold potency over gamma relative to alpha)” value [3] was greater than 10 fold.
In the case of `Cc1nc2ccccc2n1-c1nc(N2CCOCC2)c2cc(CN3CCN(S(C)(=O)=O)CC3)sc2n1` [Compound 16, 2-(2-methyl-1H-benzo[d]imidazol-1-yl)-6-((4-methylsulfonylpiperazin-1-yl)methyl)-4-morpholinothieno[2,3-d]pyrimidine], the “alpha/beta (fold potency over beta relative to alpha)” value [1] is reported as greater than 10 fold, the “alpha/delta (fold potency over delta relative to alpha)” value [2] is reported as less than 10 fold and the “alpha/gamma (fold potency over gamma relative to alpha)” value [3] is reported as greater than 10 fold.
In the case of `Cc1c(CN2CCC(S(C)(=O)=O)CC2)sc2c(N3CCOCC3)nc(-c3cccc4[nH]ncc34)nc12` [Compound 23, 2-(1H-indazol-4-yl)-7-methyl-6-((4-(methylsulfonyl)piperidin-1-yl)methyl)-4-morpholinothieno[3,2-d]pyrimidine], the “alpha/beta (fold potency over beta relative to alpha)” value [1] is reported as greater than 10 fold, the “alpha/delta (fold potency over delta relative to alpha)” value [2] is reported as less than 10 fold and the “alpha/gamma (fold potency over gamma relative to alpha)” value [3] is reported as greater than 10 fold.
`CN1CCN(S(=O)(=O)C2CCN(Cc3cc4nc(-c5cccc6[nH]ncc56)nc(N5CCOCC5)c4s3)CC2)CC1` [Compound 24, 2-(1H-indazol-4-yl)-6-((4-N-4-methylpiperazinosulfonylpiperidin-1-yl)methyl)-4-morpholinothieno[3,2-d]pyrimidine] was tested, and the “alpha/beta (fold potency over beta relative to alpha)” value [1] was greater than 10 fold, the “alpha/delta (fold potency over delta relative to alpha)” value [2] was less than 10 fold and the “alpha/gamma (fold potency over gamma relative to alpha)” value [3] was greater than 10 fold.
In the case of `CN(C)S(=O)(=O)C1CCN(Cc2cc3nc(-c4cccc5[nH]ncc45)nc(N4CCOCC4)c3s2)CC1` [Compound 27, 2-(1H-indazol-4-yl)-6-((4-N,N-dimethylaminosulfonylpiperidin-1-yl)methyl)-4-morpholinothieno[3,2-d]pyrimidine], the “alpha/beta (fold potency over beta relative to alpha)” value [1] is reported as greater than 10 fold, the “alpha/delta (fold potency over delta relative to alpha)” value [2] is reported as less than 10 fold and the “alpha/gamma (fold potency over gamma relative to alpha)” value [3] is reported as greater than 10 fold.
For `O=S(=O)(N1CCOCC1)N1CCN(Cc2cc3nc(-c4cccc5[nH]ncc45)nc(N4CCOCC4)c3s2)CC1` [Compound 28, 2-(1H-indazol-4-yl)-6-((4-N-morpholinosulfonylpiperazin-1-yl)methyl)-4-morpholinothieno[3,2-d]pyrimidine], the “alpha/beta (fold potency over beta relative to alpha)” value [1] was greater than 10 fold, the “alpha/delta (fold potency over delta relative to alpha)” value [2] was less than 10 fold and the “alpha/gamma (fold potency over gamma relative to alpha)” value [3] was greater than 10 fold.
For `Cc1c(CN2CCN(S(C)(=O)=O)CC2)sc2c(N3CCOCC3)nc(-c3cccc4[nH]ncc34)nc12` [Compound 29, 2-(1H-indazol-4-yl)-7-methyl-6-((4-(methylsulfonyl)piperazin-1-yl)methyl)-4-morpholinothieno[3,2-d]pyrimidine], the “alpha/beta (fold potency over beta relative to alpha)” value [1] was greater than 10 fold, the “alpha/delta (fold potency over delta relative to alpha)” value [2] was less than 10 fold and the “alpha/gamma (fold potency over gamma relative to alpha)” value [3] was greater than 10 fold.
With `COCCN(Cc1cc2nc(-c3cccc4[nH]ncc34)nc(N3CCOCC3)c2s1)C1CCN(S(C)(=O)=O)CC1` [Compound 34, N-((2-(1H-indazol-4-yl)-4-morpholinothieno[3,2-d]pyrimidin-6-yl)methyl)-N-(2-methoxyethyl)-1-methylsulfonylpiperidin-4-amine] the “alpha/beta (fold potency over beta relative to alpha)” value [1] was greater than 10 fold, the “alpha/delta (fold potency over delta relative to alpha)” value [2] was less than 10 fold and the “alpha/gamma (fold potency over gamma relative to alpha)” value [3] was greater than 10 fold.
With `CC(=O)N1CCN(Cc2cc3nc(-c4cccc5[nH]ncc45)nc(N4CCOCC4)c3s2)CC1` [Compound 54, 1-(4-((2-(1H-indazol-4-yl)-4-morpholinothieno[3,2-d]pyrimidin-6-yl)methyl)piperazin-1-yl)ethanone] the “alpha/beta (fold potency over beta relative to alpha)” value [1] was less than 10 fold, the “alpha/delta (fold potency over delta relative to alpha)” value [2] was less than 10 fold and the “alpha/gamma (fold potency over gamma relative to alpha)” value [3] was greater than 10 fold.
In the case of `CS(=O)(=O)N1CCN(Cc2cc3c(N4CCOCC4)nc(-c4cccc5[nH]ncc45)nc3s2)CC1` [Compound 57, 2-(1H-indazol-4-yl)-6-((4-methylsulfonylpiperazin-1-yl)methyl)-4-morpholinothieno[2,3-d]pyrimidine], the “alpha/beta (fold potency over beta relative to alpha)” value [1] is reported as greater than 10 fold, the “alpha/delta (fold potency over delta relative to alpha)” value [2] is reported as less than 10 fold and the “alpha/gamma (fold potency over gamma relative to alpha)” value [3] is reported as greater than 10 fold.
`CN(C1CCN(Cc2cc3nc(-c4cccc5[nH]ncc45)nc(N4CCOCC4)c3s2)C1)S(C)(=O)=O` (stereo not drawn) [Compound 58, 1-((2-(1H-indazol-4-yl)-4-morpholinothieno[3,2-d]pyrimidin-6-yl)methyl)-N-methyl-N-methylsulfonylpyrrolidin-3-amine] was tested, and the “alpha/beta (fold potency over beta relative to alpha)” value [1] was greater than 10 fold, the “alpha/delta (fold potency over delta relative to alpha)” value [2] was less than 10 fold and the “alpha/gamma (fold potency over gamma relative to alpha)” value [3] was greater than 10 fold.
`CN(Cc1cc2nc(-c3cccc4[nH]ncc34)nc(N3CCOCC3)c2s1)CC1CCCN1S(C)(=O)=O` (stereo not drawn) [Compound 59, N-((2-(1H-indazol-4-yl)-4-morpholinothieno[3,2-d]pyrimidin-6-yl)methyl)-N-methyl(1-methylsulfonylpyrrolidin-2-yl)methanamine] was tested, and the “alpha/beta (fold potency over beta relative to alpha)” value [1] was greater than 10 fold, the “alpha/delta (fold potency over delta relative to alpha)” value [2] was less than 10 fold and the “alpha/gamma (fold potency over gamma relative to alpha)” value [3] was greater than 10 fold.
In the case of `CN(Cc1cc2nc(-c3cccc4[nH]ncc34)nc(N3CCOCC3)c2s1)C1CCN(S(C)(=O)=O)C1` (stereo not drawn) [Compound 60, N-((2-(1H-indazol-4-yl)-4-morpholinothieno[3,2-d]pyrimidin-6-yl)methyl)-N-methyl-(1-methylsulfonylpyrrolidin)-3-amine], the “alpha/beta (fold potency over beta relative to alpha)” value [1] is reported as greater than 10 fold, the “alpha/delta (fold potency over delta relative to alpha)” value [2] is reported as less than 10 fold and the “alpha/gamma (fold potency over gamma relative to alpha)” value [3] is reported as greater than 10 fold.
In the case of `c1cc(-c2nc(N3CCOCC3)c3sc(CN4CCC(Cn5cccn5)CC4)cc3n2)c2cn[nH]c2c1` [Compound 62, 6-((4-((1H-pyrazol-1-yl)methyl)piperidin-1-yl)methyl)-2-(1H-indazol-4-yl)-4-morpholinothieno[3,2-d]pyrimidine], the “alpha/beta (fold potency over beta relative to alpha)” value [1] is reported as greater than 10 fold, the “alpha/delta (fold potency over delta relative to alpha)” value [2] is reported as less than 10 fold and the “alpha/gamma (fold potency over gamma relative to alpha)” value [3] is reported as greater than 10 fold.
For `OC1CCCN(Cc2cc3nc(-c4cccc5[nH]ncc45)nc(N4CCOCC4)c3s2)C1` (stereo not drawn) [Compound 65, 1-((2-(1H-indazol-4-yl)-4-morpholinothieno[3,2-d]pyrimidin-6-yl)methyl)piperidin-3-ol], the “alpha/beta (fold potency over beta relative to alpha)” value [1] was less than 10 fold, the “alpha/delta (fold potency over delta relative to alpha)” value [2] was less than 10 fold and the “alpha/gamma (fold potency over gamma relative to alpha)” value [3] was greater than 10 fold.
For `C[C@H](O)C(=O)N1CCN(Cc2cc3nc(-c4cccc5[nH]ncc45)nc(N4CCOCC4)c3s2)CC1` [Compound 66, (S)-1-(4-((2-(1H-indazol-4-yl)-4-morpholinothieno[3,2-d]pyrimidin-6-yl)methyl)piperazin-1-yl)-2-hydroxypropan-1-one], the “alpha/beta (fold potency over beta relative to alpha)” value [1] was less than 10 fold, the “alpha/delta (fold potency over delta relative to alpha)” value [2] was less than 10 fold and the “alpha/gamma (fold potency over gamma relative to alpha)” value [3] was greater than 10 fold.
`CS(=O)(=O)N1CCN(Cc2cc3nc(-c4cnc5ccccc5c4)nc(N4CCOCC4)c3s2)CC1` [Compound 89, 3-[6-(4-Methanesulfonyl-piperazin-1-ylmethyl)-4-morpholin-yl-thieno[3,2-d]pyrimidin-2-yl]-quinoline] was tested, and the “alpha/beta (fold potency over beta relative to alpha)” value [1] was greater than 10 fold, the “alpha/delta (fold potency over delta relative to alpha)” value [2] was greater than 10 fold and the “alpha/gamma (fold potency over gamma relative to alpha)” value [3] was greater than 10 fold.

From patent publication US9943519B2, “Pharmaceutical compounds” (F.HOFFMANN-LA ROCHE AG, priority 2006, dated 2018)
